Key:
Assay type in all cases: in vivo
Abutilon theophrasti = experiment: Post-emergence test experiment (greenhouse pot, spray at 2-3 leaf stage); details: 1000 g/ha; post-emergence spray at 2-3 leaf stage; assessed after 3 weeks; fresh weight inhibition rate
Outline: (§1)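 Weed seeds sown in soil-filled pots in greenhouse, sprayed at 2-3 leaf stage (2 weeks after sowing) with compound in acetone/tween-80 plus methyl oleate emulsible concentrate (1.5 L/ha) diluted in water. Fresh-weight growth inhibition scored after 3 weeks on 0-5 scale (5: >85%, 0: <5%).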

Cyperus iria = experiment: as above; details: 600 g/ha; for Cyperus iria, activity level (growth inhibition rate): post-emergence, after 3 weeks, from Hunan, resistant to ALS inhibitor herbicides
Outline: as §1

Digitaria sanguinalis = experiment: as above; details: for Activity level (growth inhibition rate) Digitaria sanguinalis: 1000 g/ha, post-emergence spray at 2-3 leaf stage, assessed after 3 weeks, fresh weight inhibition rate
Outline: as §1

Echinochloa crusgalli = experiment: as above; details: for Activity level (growth inhibition rate) Echinochloa crusgalli: 1000 g/ha, post-emergence spray at 2-3 leaf stage, assessed after 3 weeks, fresh weight inhibition rate; for Echinochloa crusgalli, activity level (growth inhibition rate): post-emergence, after 3 weeks, from Hunan, resistant to ALS inhibitor herbicides
Outline: as §1

Galium spurium = experiment: as above; details: 1000 g/ha; post-emergence spray at 2-3 leaf stage; assessed after 3 weeks; fresh weight inhibition rate
Outline: as §1

Indica rice = experiment: as above; details: 600 g/ha; for Indica rice, activity level (growth inhibition rate): post-emergence, after 3 weeks
Outline: (§2)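 Activity graded levels 0-5 by fresh-weight inhibition (level 5 above 85%, level 0 below 5%), assessed 3 weeks after treatment. Plants grown in greenhouse pots were sprayed post-emergence at 2-3 leaves using acetone/tween-80 solutions with methyl oleate synergist (1.5 L/ha).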

Japonica rice = experiment: as above; details: 600 g/ha; for Japonica rice, activity level (growth inhibition rate): post-emergence, after 3 weeks
Outline: as §2

Monochoria vaginalis [1] = experiment: as above; details: 1000 g/ha; post-emergence spray at 2-3 leaf stage; assessed after 3 weeks; fresh weight inhibition rate
Outline: as §1

rice (japonica rice) = experiment: Transplanted rice safety evaluation in rice field soil pot; details: 1000 g/ha, 21 days after treatment
Excerpt: (§3) The activity level standard of harmful plants destruction (i. e. growth inhibition rate) is as follows: • Level 5: the growth inhibition rate is greater than 85%; • Level 4: the growth inhibition rate is equal to or greater than 60% and less than 85%; • Level 3: the growth inhibition rate is equal to or greater than 40% and less than 60%; • Level 2: the growth inhibition rate is equal to or greater than 20% and less than 40%; • Level 1: the growth inhibition rate is equal to or greater than 5% and less than 20%; • Level 0: the growth inhibition rate is less than 5%;
(§4) Transplanted rice safety evaluation and weed control effect evaluation in rice field:
In addition, the rice field soil that loaded into the 1/1,000,000 ha pot was leveled to keep water storage at 3-4 cm depth. The 3-leaf stage rice (japonica rice) was transplanted at 3 cm of transplanting depth the next day. The compound of the present invention was treated by the same way after 5 days of transplantation.
(§5) The fertility condition of Monochoria vaginalis 14 days and rice 21 days after the treatment of the compound of the invention with the naked eye.

Monochoria vaginalis [2] = experiment: Weed control effect evaluation in rice field soil pot; details: paddy pot, 1000 g/ha, 14 days after treatment; resistant to pyrazosulfuron-ethyl and penoxsulam
Excerpt: as §3, §4
Rice field soil was loaded into a 1/1,000,000 ha pot. The seeds of Monochoria vaginalis were sowed and gently covered with soil, then left to stand still in greenhouse in the state of 0.5-1 cm of water storage. It was kept at 3-4 cm of water storage thereafter. The weeds were treated by dripping the WP or SC water diluents prepared according to the common preparation method of the compounds of the present invention with pipette homogeneously to achieve specified effective amount when Monochoria vaginalis reached 0.5 leaf stage.
as §5

Soybean = experiment: Spray drift test, application by unmanned gyroplane, soybean field at 10 meters; details: 600 g/ha, gyroplane at 1 m, gentle breeze
Experimental: Broadleaf crops are very sensitive to hormonal herbicides, therefore crop injuries are more likely to occur in case of spray drifting. Tests were conducted in gentle breeze for the compounds of the present invention. The formulation of the compounds of the present invention was applied by DJI unmanned gyroplane with application height of 1 m and water volume of 20 kg/ha. The use rate was 600 g/ha. The active ingredient was dissolved by acetone and diluted to aqueous solution of Tween 80. There's a soybean field at 10 meters from the application area and the height of soybean plants were about 15 cm at the application time.

Echinochloa phyllopogon = experiment: Post-emergence test experiment (greenhouse pot, spray at 2-3 leaf stage); details: 600 g/ha
Outline: as §1

Leptochloa chinensis = experiment: as above; details: 600 g/ha
Outline: as §1

Setaria viridis = experiment: as above; details: 600 g/ha
Outline: as §1

[3] = post-emergence comparison, 600 g/ha

| SMILES | Activity level (growth inhibition rate) Abutilon theophrasti (Abutilon theophrasti) | Cyperus iria, activity level (growth inhibition rate) (Cyperus iria) | Activity level (growth inhibition rate) Digitaria sanguinalis (Digitaria sanguinalis) | Activity level (growth inhibition rate) Echinochloa crusgalli (Echinochloa crusgalli) | Echinochloa crusgalli, activity level (growth inhibition rate) (Echinochloa crusgalli; 600 g/ha) | Activity level (growth inhibition rate) Galium spurium (Galium spurium) | Indica rice, activity level (growth inhibition rate) (Indica rice) | Japonica rice, activity level (growth inhibition rate) (Japonica rice) | Activity level (growth inhibition rate) Monochoria Vaginalis (Monochoria vaginalis [1]) | Rice, safety level (rice (japonica rice)) | Monochoria Vaginalis, activity level (Monochoria vaginalis [2]) | Soybean, injury level by spray drift (Soybean) | Cyperus iria, activity level (comparison test) (Cyperus iria; post-emergence comparison) | Digitaria sanguinalis, activity level (comparison test) (Digitaria sanguinalis; [3]) | Echinochloa crusgalli, activity level (comparison test) (Echinochloa crusgalli; [3]) | Echinochloa phyllopogon, activity level (comparison test) (Echinochloa phyllopogon) | Indica rice, activity level (comparison test) (Indica rice; post-emergence comparison) | Japonica rice, activity level (comparison test) (Japonica rice; post-emergence comparison) | Leptochloa chinensis, activity level (comparison test) (Leptochloa chinensis) | Setaria viridis, activity level (comparison test) (Setaria viridis) |
| --- | --- | --- | --- | --- | --- | --- | --- | --- | --- | --- | --- | --- | --- | --- | --- | --- | --- | --- | --- | --- |
| CC(Oc1nc(F)c(Cl)c(N)c1Cl)C(=O)OCc1ccccc1 (stereo not drawn) [Compound 4] | 5 (Level 5: the growth inhibition rate is greater than 85%) | 5 (Level 5: the growth inhibition rate is greater than 85%) | 5 (Level 5: the growth inhibition rate is greater than 85%) | 5 (Level 5: the growth inhibition rate is greater than 85%) | 5 (Level 5: the growth inhibition rate is greater than 85%) | 5 (Level 5: the growth inhibition rate is greater than 85%) | 0 (Level 0: the growth inhibition rate is less than 5%) | 0 (Level 0: the growth inhibition rate is less than 5%) | 5 (Level 5: the growth inhibition rate is greater than 85%) | 0 (Level 0: the growth inhibition rate is less than 5%) | 5 (Level 5: the growth inhibition rate is greater than 85%) | 0 (Level 0: the growth inhibition rate is less than 5%) |  |  |  |  |  |  |  |  |
| CC(Oc1nc(F)c(Cl)c(N)c1Cl)C(=O)OCc1c(F)c(F)c(F)c(F)c1F (stereo not drawn) [Compound 238] | 5 (Level 5: the growth inhibition rate is greater than 85%) |  | 5 (Level 5: the growth inhibition rate is greater than 85%) | 5 (Level 5: the growth inhibition rate is greater than 85%) |  | 5 (Level 5: the growth inhibition rate is greater than 85%) |  |  | 5 (Level 5: the growth inhibition rate is greater than 85%) |  |  |  | 5 (Level 5: the growth inhibition rate is greater than 85%) | 5 (Level 5: the growth inhibition rate is greater than 85%) | 5 (Level 5: the growth inhibition rate is greater than 85%) | 4 (Level 4: the growth inhibition rate is equal to or greater than 60% and less than 85%) | 0 (Level 0: the growth inhibition rate is less than 5%) | 0 (Level 0: the growth inhibition rate is less than 5%) | 5 (Level 5: the growth inhibition rate is greater than 85%) | 5 (Level 5: the growth inhibition rate is greater than 85%) |
| CC(Oc1nc(F)c(Cl)c(N)c1Cl)C(=O)OCc1ccccn1 (stereo not drawn) [Compound 120] | 5 (Level 5: the growth inhibition rate is greater than 85%) | 5 (Level 5: the growth inhibition rate is greater than 85%) | 5 (Level 5: the growth inhibition rate is greater than 85%) | 5 (Level 5: the growth inhibition rate is greater than 85%) | 5 (Level 5: the growth inhibition rate is greater than 85%) | 5 (Level 5: the growth inhibition rate is greater than 85%) | 0 (Level 0: the growth inhibition rate is less than 5%) | 0 (Level 0: the growth inhibition rate is less than 5%) | 5 (Level 5: the growth inhibition rate is greater than 85%) | 0 (Level 0: the growth inhibition rate is less than 5%) | 5 (Level 5: the growth inhibition rate is greater than 85%) |  |  |  |  |  |  |  |  |  |

From patent publication US12049450B2, “Pyridyloxy-carboxylate derivative and preparation method therefor, herbicidal composition, and use” (Qingdao Kingagroot Chemical Compound Co., Ltd., priority 2018, dated 2024)
